Data reported in patent US20260001875A1, “AMINOPYRIMIDINYL DERIVATIVES FOR THE TREATMENT OF PARKINSON'S DISEASE” (UNIVERSITY OF DUNDEE, priority 2022, published 2026).
pEC50: −log10 of the molar value. Read-outs that look alike come from different tables or passages of the source.

Tests used:
LRRK2^WT [1] = assay: Western blot LRRK2 degradation in WT MEFs; format: cell-based, mouse; settings: WT MEFs and LRRK2^G2019S MEFs
Method: (§1) Western blot degradation assays for the LRRK2 protacs were performed with WT and PD-associated LRRK2 [G2019S] mouse embryonic fibroblasts (MEFs). The second-generation PROTACs were tested in parallel with the first generation PROTACs SD75, SD82, and SD100. The compounds were tested at 33 nM or […] concentrations for 4 hours or 24 hours, running two biological replicates per condition and achieving quantifications representative of both replicates. Analysis by quantitative immunoblotting was performed with readouts of the total LRRK2 (antibody recognizes epitope in C-terminus of protein), Rab10 pThr73 (physiological substrate) and LRRK2 pSer935 (biomarker phosphorylation site).
(§2) Primary MEFs were generated as described in a previous study (Wiggin et al., Mol. Cell Biol. 2002 April; 22(8):2871-81.). Briefly, the uterine horn was collected from adult female mice at day E12.5 and transferred to a 10 cm tissue culture dish containing cold PBS. Two forceps were used to tear the yolk sacs to isolate each embryo. Forceps were cleaned thoroughly with 70% ethanol between each embryo isolation. The embryos were culled, and a tissue piece was collected in a PCR tube for genotyping. The red tissue of the embryo, which grows to become the heart and liver, was removed. The remainder of the embryo was minced with a scalpel blade and incubated with 7.5 ml trypsin-EDTA solution for 10 minutes in a 37° C. tissue culture CO2 incubator. The dish was removed from the incubator and checked under a light microscope for single cells. 7.5 ml complete media was added to the trypsinised cells, and the cell suspension was transferred to a 15 ml Falcon tube, centrifuged at 1200 rpm for 5 minutes at room temperature. The trypsin was aspirated, the cell pellet was resuspended in 5 ml fresh complete media, and the cell suspension was plated in a 60 mm tissue culture dish and incubated in a 37° C., 5% CO2 tissue culture incubator. The MEFs at this stage were considered as passage 0 and were passaged and expanded for experimental use once the genotype was confirmed by allelic sequencing and immunoblotting. MEFs were cultured in Dulbecco's modified Eagle medium (DMEM) containing 10% (v/v) fetal bovine serum (FBS), 2 mM L-glutamine, 100 U/ml penicillin, and 100 μg/ml streptomycin supplemented with 1× non-essential amino acids and 1 mM sodium pyruvate.
(§3) Culturing and passaging of adherent cell lines were carried out using aseptic technique in CL1 or CL2 (for PBMC isolation) biological safety cabinets. All cells were incubated in a 37° C. incubator with 5% CO2. Cell lines were regularly tested for mycoplasma contamination. For western blot assay, the cells were seeded in 6-well plates. After treating with testing compounds at indicated concentrations and time period, the media was removed and the cells were washed with PBS and lysed in 100 μl ice-cold complete lysis buffer containing 50 mM Tris-HCl pH 7.4, 1 mM EGTA, 10 mM 2-glycerophosphate, 50 mM sodium fluoride, 5 mM sodium pyrophosphate, 270 mM sucrose, supplemented with 1 μg/ml microcystin-LR, 1 mM sodium orthovanadate, complete EDTA-free protease inhibitor cocktail (Roche) and 1% (v/v) Triton X-100. The cells were immediately placed on ice and were scraped and collected into 1.5 ml Eppendorf tubes. Cell lysates were incubated on ice for 10 minutes prior to centrifugation at 15,000 g at 4° C. for 15 minutes. The cell pellet was discarded, and supernatant was collected for analysis by quantitative immunoblotting. For long term storage, the supernatant was flash frozen and stored at −80° C. Protein concentrations of cell lysates were determined using the Bradford assay.
(§4) Cell lysates containing a quarter of a volume of 4× NuPAGE LDS sample buffer (NP0007) supplemented with 5% β-mercaptoethanol, were heated at 95° C. for 5 minutes. […]

Rab10 pThr73 [2] = assay: Rab10 Thr73 dephosphorylation (immunoblot) in WT MEFs; format: cell-based, mouse; settings: Mus musculus; for inhibition at 0.033 µM / inhibition at 1 µM: read-out: pRab10 inhibited in WT MEFs; for pEC50: dose response, 4 h treatment, read-out: WT MEFs pRab10-dephosphrylation EC50
Method in brief: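 Wild-type mouse embryonic fibroblasts in 6-well plates were treated with LRRK2 PROTACs, with two biological replicates per condition. Cells were washed in PBS and lysed on ice in buffer containing phosphatase and protease inhibitors plus 1% Triton X-100, then clarified at 15,000 g. Rab10 Thr73 phosphorylation was measured by quantitative immunoblotting of 15 to 20 μg protein on 4-12% Bis-Tris gels.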

Rab10 pThr73 [3] = assay: Rab10 Thr73 dephosphorylation (immunoblot) in LRRK2^G2019S MEFs; format: cell-based; settings: Mus musculus, read-out: pRab10 inhibited in LRRK2^G2019S MEFs
Rab10 pThr73 [4] = assay: as above; format: cell-based, mouse; settings: Mus musculus; for inhibition at 1 µM: read-out: pRab10 inhibited in LRRK2^G2019S MEFs; for pEC50: dose response, 4 h treatment, read-out: G2019S MEFs-pRab10-dephosphorylation EC50
LRRK2^WT [5] = target: T1, LRRK2^WT (Mus musculus, UniProt Q5S006); assay: Western blot LRRK2 degradation in WT MEFs; format: cell-based; settings: for Dmax: read-out: Dmax on WT MEFs
T1 construct: endogenous in cells; host or cells: primary wild-type mouse embryonic fibroblasts (MEFs)
Method: as §1, §2, §3, §4

LRRK2^G2019S = target: T2, LRRK2^G2019S (Mus musculus, UniProt Q5S006, G2019S); assay: Western blot LRRK2 degradation in LRRK2^G2019S MEFs; format: cell-based; settings: for Dmax: read-out: Dmax on G2019S MEFs
T2 construct: endogenous in cells; host or cells: LRRK2[G2019S] mouse embryonic fibroblasts (MEFs)
Method: as §1, with “The” for “Western blot degradation assays for the LRRK2 protacs were performed with WT and PD-associated LRRK2 [G2019S] mouse embryonic fibroblasts (MEFs). The”
as §2
Culturing and passaging of adherent cell lines were carried out using aseptic technique in CL1 or CL2 (for PBMC isolation) biological safety cabinets. All cells were incubated in a 37° C. incubator with 5% CO2. Cell lines were regularly tested for mycoplasma contamination. For western blot assay, the cells were seeded in 6-well plates. […] The cells were immediately placed on ice and were scraped and collected into 1.5 ml Eppendorf tubes. Cell lysates were incubated on ice for 10 minutes prior to centrifugation at 15,000 g at 4° C. for 15 minutes. The cell pellet was discarded, and supernatant was collected for analysis by quantitative immunoblotting. For long term storage, the supernatant was flash frozen and stored at −80° C. Protein concentrations of cell lysates were determined using the Bradford assay.
Cell lysates containing a quarter of a volume of 4× NuPAGE LDS sample buffer (NP0007) supplemented with 5% β-mercaptoethanol, were heated at 95° C. for 5 minutes. 15 to 20 μg of samples were loaded onto pre-cast 4-12% Bis-Tris midi 20W or 26W gels (Thermofisher Scientific®, Cat #WG1402BOX or WG1403BOX) and resolved at 130 V for 2 hours with NuPAGE MOPS SDS running buffer (Thermofisher Scientific® Cat #NP0001-02). Proteins were electrophoretically transferred onto a 0.45 μm nitrocellulose membrane (GE Healthcare, Amersham Protran® Supported 0.45 mm NC) at 90 V for 90 min on ice in transfer buffer (48 mM Tris base and 39 mM glycine supplemented with 20% methanol). The transferred membrane was blocked with 5% (w/v) skim milk powder dissolved in tris-buffered saline with tween (TBS-T) (50 mM Tris base, 150 mM sodium chloride (NaCl), 0.1% (v/v) Tween-20) at room temperature for 1 hour.

T2 sequence (Q5S006 whole entry G2019S): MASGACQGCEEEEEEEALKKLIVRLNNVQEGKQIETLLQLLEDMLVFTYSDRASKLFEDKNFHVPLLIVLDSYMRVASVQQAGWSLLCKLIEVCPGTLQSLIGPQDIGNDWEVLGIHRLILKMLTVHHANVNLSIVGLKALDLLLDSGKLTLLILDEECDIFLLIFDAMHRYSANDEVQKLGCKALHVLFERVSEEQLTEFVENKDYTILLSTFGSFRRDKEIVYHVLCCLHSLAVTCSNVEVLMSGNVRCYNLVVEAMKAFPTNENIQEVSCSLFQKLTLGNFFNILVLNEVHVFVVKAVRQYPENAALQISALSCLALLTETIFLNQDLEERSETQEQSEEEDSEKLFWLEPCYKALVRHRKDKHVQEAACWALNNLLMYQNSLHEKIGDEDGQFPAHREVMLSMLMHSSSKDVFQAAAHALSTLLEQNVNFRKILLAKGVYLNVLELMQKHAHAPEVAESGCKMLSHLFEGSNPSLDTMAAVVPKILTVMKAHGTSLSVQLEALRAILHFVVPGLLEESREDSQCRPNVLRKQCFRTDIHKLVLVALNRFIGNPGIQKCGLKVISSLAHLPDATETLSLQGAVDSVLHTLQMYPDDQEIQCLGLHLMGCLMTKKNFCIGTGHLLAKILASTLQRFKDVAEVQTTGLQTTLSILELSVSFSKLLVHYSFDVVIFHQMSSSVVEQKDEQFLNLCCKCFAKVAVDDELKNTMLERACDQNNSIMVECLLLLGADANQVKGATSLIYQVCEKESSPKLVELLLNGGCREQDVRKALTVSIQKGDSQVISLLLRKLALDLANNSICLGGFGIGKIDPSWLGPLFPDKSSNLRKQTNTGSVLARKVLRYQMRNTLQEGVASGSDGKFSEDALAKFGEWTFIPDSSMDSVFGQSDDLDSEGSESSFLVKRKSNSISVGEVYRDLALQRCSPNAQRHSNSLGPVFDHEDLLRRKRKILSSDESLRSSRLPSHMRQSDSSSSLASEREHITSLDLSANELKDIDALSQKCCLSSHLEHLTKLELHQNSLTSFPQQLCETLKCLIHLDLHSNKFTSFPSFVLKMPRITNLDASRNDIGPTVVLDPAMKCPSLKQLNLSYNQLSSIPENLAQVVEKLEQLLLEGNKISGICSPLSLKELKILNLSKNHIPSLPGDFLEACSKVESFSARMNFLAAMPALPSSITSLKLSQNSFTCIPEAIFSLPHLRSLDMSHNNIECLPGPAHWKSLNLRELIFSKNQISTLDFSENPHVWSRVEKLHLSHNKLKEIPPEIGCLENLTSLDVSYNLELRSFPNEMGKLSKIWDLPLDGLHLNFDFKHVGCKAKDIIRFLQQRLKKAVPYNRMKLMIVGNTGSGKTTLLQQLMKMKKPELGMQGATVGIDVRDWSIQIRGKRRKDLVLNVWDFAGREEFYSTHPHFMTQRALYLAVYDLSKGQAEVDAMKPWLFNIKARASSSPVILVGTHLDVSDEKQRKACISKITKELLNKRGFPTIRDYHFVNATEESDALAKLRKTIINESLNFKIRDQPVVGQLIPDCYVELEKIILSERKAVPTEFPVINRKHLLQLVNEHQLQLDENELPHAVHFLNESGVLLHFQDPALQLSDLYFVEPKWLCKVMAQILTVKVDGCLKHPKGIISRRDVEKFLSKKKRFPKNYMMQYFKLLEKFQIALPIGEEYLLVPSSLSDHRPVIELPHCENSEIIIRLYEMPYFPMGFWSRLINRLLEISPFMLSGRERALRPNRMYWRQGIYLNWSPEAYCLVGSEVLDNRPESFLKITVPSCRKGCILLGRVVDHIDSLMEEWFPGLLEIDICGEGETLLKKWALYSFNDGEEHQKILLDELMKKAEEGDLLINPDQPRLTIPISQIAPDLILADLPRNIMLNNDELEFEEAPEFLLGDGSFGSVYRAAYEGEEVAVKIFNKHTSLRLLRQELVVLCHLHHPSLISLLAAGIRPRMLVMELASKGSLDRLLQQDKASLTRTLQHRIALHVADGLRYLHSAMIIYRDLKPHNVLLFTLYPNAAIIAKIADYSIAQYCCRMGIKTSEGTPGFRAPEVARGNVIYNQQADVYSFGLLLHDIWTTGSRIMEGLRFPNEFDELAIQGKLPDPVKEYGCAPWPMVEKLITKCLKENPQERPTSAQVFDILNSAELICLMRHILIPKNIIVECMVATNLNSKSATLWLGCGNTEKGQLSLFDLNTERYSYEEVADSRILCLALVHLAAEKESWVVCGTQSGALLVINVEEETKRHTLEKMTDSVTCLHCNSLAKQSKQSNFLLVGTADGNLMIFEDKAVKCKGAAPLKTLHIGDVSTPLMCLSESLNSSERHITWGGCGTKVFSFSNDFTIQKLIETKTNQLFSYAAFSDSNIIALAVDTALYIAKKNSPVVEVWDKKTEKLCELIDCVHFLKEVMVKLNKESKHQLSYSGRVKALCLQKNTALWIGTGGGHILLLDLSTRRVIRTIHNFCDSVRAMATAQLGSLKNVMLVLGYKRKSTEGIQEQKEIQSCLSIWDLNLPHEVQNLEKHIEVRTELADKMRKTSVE
T1 sequence (Q5S006 whole entry): as the sequence (Q5S006 whole entry G2019S) above, with S2019G counted along it

| SMILES | LRRK2 degradation (in words) (LRRK2^WT [1]) | inhibition at 0.033 µM (Rab10 pThr73 [2]; 33 nM/4 h treatment) [%] | inhibition at 1 µM (Rab10 pThr73 [2]; 1 μM/4 h treatment) [%] | inhibition at 1 µM (Rab10 pThr73 [2]; 1 μM/24 h treatment) [%] | inhibition at 0.033 µM (Rab10 pThr73 [3]; 33 nM/4 h treatment) [%] | inhibition at 0.033 µM (Rab10 pThr73 [3]; 33 nM/24 h treatment) [%] | inhibition at 1 µM (Rab10 pThr73 [4]; 1 μM/4 h treatment) [%] | DC50 (LRRK2^WT [5]; dose response, 4 h treatment) [nM] | Dmax (LRRK2^WT [5]; dose response, 4 h treatment) [%] | DC50 (LRRK2^G2019S; dose response, 4 h treatment) [nM] | Dmax (LRRK2^G2019S; dose response, 4 h treatment) [%] | inhibition at 0.033 µM (Rab10 pThr73 [2]; 33 nM/24 h treatment) [%] | pEC50 (Rab10 pThr73 [2]) | inhibition at 1 µM (Rab10 pThr73 [4]; 1 μM/24 h treatment) [%] | pEC50 (Rab10 pThr73 [4]) | Dmax (LRRK2^WT [5]) [%] | Dmax (LRRK2^G2019S) [%] |
| --- | --- | --- | --- | --- | --- | --- | --- | --- | --- | --- | --- | --- | --- | --- | --- | --- | --- |
| CNc1nc(Nc2ccc(C(=O)N3CCN(CCCSC(C)(C)[C@H](NC(=O)C4(F)CC4)C(=O)N4C[C@H](O)C[C@H]4C(=O)NCc4ccc(-c5scnc5C)cc4)CC3)cc2OC)ncc1Cl [SD82, (2S,4R)-1-((R)-3-((3-(4-(4-((5-chloro-4-(methylamino)pyrimidin-2-yl)amino)-3-methoxybenzoyl)piperazin-1-yl)propyl)thio)-2-(1-fluorocyclopropane-1-carboxamido)-3-methylbutanoyl)-4-hydroxy-N-(4-(4-methylthiazol-5-yl)benzyl)pyrrolidine-2-carboxamide] | moderate LRRK2 degradation | 0 to 25 | 18 to 90 | 30 to 90 | 0 to 60 | 0 to 70 | 30 to 95 | – | – | – | – | – | – | – | – | – | – |
| CNc1nc(Nc2ccc(OC3CCN(C[C@H]4CC[C@H](CSC(C)(C)C(NC(=O)C5(F)CC5)C(=O)N5C[C@H](O)C[C@H]5C(=O)NCc5ccc(-c6scnc6C)cc5)CC4)CC3)cc2OC)ncc1Cl (stereo partly drawn) [XL02017, (2S,4R)-1-((S)-3-((((1R,4S)-4-((4-(4-((5-chloro-4-(methylamino)pyrimidin-2-yl)amino)-3-methoxyphenoxy)piperidin-1-yl)methyl)cyclohexyl)methyl)thio)-2-(1-fluorocyclopropane-1-carboxamido)-3-methylbutanoyl)-4-hydroxy-N-(4-(4-methylthiazol-5-yl)benzyl)pyrrolidine-2-carboxamide] | – | 0 to 70 | 80 to 100 | 80 to 100 | 0 to 90 | 30 to 90 | 10 to 100 | 44 | 68 | 22 | 79 | 0 to 80 | 7.08 | 80 to 100 | 7.60 | – | – |
| CNc1nc(Nc2ccc(C(=O)N3CCN(C[C@H]4CC[C@H](CSC(C)(C)[C@H](NC(=O)C5(F)CC5)C(=O)N5C[C@H](O)CC5C(=O)NCc5ccc(-c6scnc6C)cc5C)CC4)CC3)cc2OC)ncc1Cl (stereo partly drawn) [XL02048, (2S,4R)-1-((R)-3-((((1R,4R)-4-((4-(4-((5-chloro-4-(methylamino)pyrimidin-2-yl)amino)-3-methoxybenzoyl)piperazin-1-yl)methyl)cyclohexyl)methyl)thio)-2-(1-fluorocyclopropane-1-carboxamido)-3-methylbutanoyl)-4-hydroxy-N-(2-methyl-4-(4-methylthiazol-5-yl)benzyl)pyrrolidine-2-carboxamide] | – | 0 to 70 | 80 to 100 | 80 to 100 | 0 to 90 | 30 to 90 | 10 to 100 | 46 | 81.5 | 23 | 83.5 | 0 to 80 | 7.14 | 80 to 100 | 7.28 | – | – |
| CNc1nc(Nc2ccc(C(=O)N3CCN(C[C@H]4CC[C@H](CSC(C)(C)[C@H](NC(=O)C5(F)CC5)C(=O)N5C[C@H](O)[C@H](F)C5C(=O)NCc5ccc(-c6scnc6C)cc5)CC4)CC3)cc2OC)ncc1Cl (stereo partly drawn) [XL02152, (2S,3R,4S)-1-((R)-3-((((1r,4R)-4-((4-(4-((5-chloro-4-(methylamino)pyrimidin-2-yl)amino)-3-methoxybenzoyl)piperazin-1-yl)methyl)cyclohexyl)methyl)thio)-2-(1-fluorocyclopropane-1-carboxamido)-3-methylbutanoyl)-3-fluoro-4-hydroxy-N-(4-(4-methylthiazol-5-yl)benzyl)pyrrolidine-2-carboxamide] | – | 20 to 40 | 75 to 90 | – | 20 to 50 | – | 80 to 100 | 62 | – | 44 | – | – | 6.84 | – | 7.20 | 68 | 80 |
